One data set relates to Eca-109 cell line. As to the kind of experiment: MTT cytotoxicity assay, Eca-109 cell line. In kind it is cell-based, Human. The note with it: Eca-109 esophageal cancer cell line, etoposide positive control. The procedure: (§1) The cytotoxic activities of all isolated compounds were evaluated by MTT assay.
(§2) According to the previous procedure, all isolated compounds were evaluated for cytotoxic activities against Eca-109, MCF-7, and HepG2 cell lines, as well as a normal human umbilical vein endothelial cell line (HUVEC) (Table 3). Etoposide was used as the positive control.
(§3) The UV spectra were measured on a Shimadzu UV-1700 spectrometer (Shimadzu Corporation, Kyoto, Japan). The IR spectra were measured on a Nicolet 10 Microscope Spectrometer (Thermo Scientific, San Jose, CA, USA). The 1D and 2D NMR spectra were recorded on Bruker-AC (E)-500 spectrometer (Bruker AM 500, Fällanden, Switzerland) using TMS as an internal standard. The HR-ESI-MS was determined on a Bruker microTOF-Q instrument (Bruker BioSpin, Rheinstetten, Germany). Column chromatography was performed with silica gel (200–300 mesh; Qingdao Marine Chemical Inc., Qingdao, China), sephadex LH-20 (GE Healthcare), ODS (50 µm; YMC Co. LTD., Kyoto, Japan.), AB-8 macroporous resin (Qinshi Science and Technology Ltd., Zhengzhou, China). Thin layer chromatography (TLC) was carried out on silica gel GF254 precoated plates (Qingdao Marine Chemical Inc., Qingdao, China), and spots were visualized under UV light. Preparative HPLC separations were performed on a SEP system (Beijing Sepuruisi scientific Co., Ltd., China) equipped with a variable-wavelength UV detector, using a YMC-Pack ODS-A column (250 × 20 mm, 5 μm). Chemical reagents for isolation were of analytical grade and purchased from Tianjin Siyou Co., Ltd., China. Biological reagents were from Sigma Company. Human heptocellular (HepG2), esophageal (Eca-109), and breast (MCF-7) cancer cell lines were from Institute of Materia Medica, Chinese Academy of Medical Sciences and Peking Union Medical College, China.
(In general: Tetrazolium dyes change colour on reduction, which living cells bring about.)

Another data set has as its system MCF-7 cell line. As to the kind of experiment: MTT cytotoxicity assay, MCF-7 cell line. In kind it is cell-based, Human. The note with it: etoposide positive control. The procedure: as §1, §2, §3
Another data set relates to HepG2 cell line. Nature of the data set: MTT cytotoxicity assay, HepG2 cell line. In kind it is cell-based, Human. The note with it: HepG2 hepatocellular cancer cell line, etoposide positive control. As to the method: as §1, §2, §3
Data set [1] can be described thus: MTT cytotoxicity assay, normal HUVEC cell line. The following applies: HUVEC (normal human umbilical vein endothelial cells). It is filed as cell-based.
Procedure: (§4) According to the previous procedure [22], all isolated compounds were evaluated for cytotoxic activities against Eca-109, MCF-7, and HepG2 cell lines, as well as a normal human umbilical vein endothelial cell line (HUVEC) (Table 3). Etoposide was used as the positive control.
The test system of data set [2] is normal human umbilical vein endothelial cell line (HUVEC). As to the kind of experiment: MTT cytotoxicity assay, normal HUVEC cell line. In kind it is cell-based.
Procedure: as §4
Where [3] appears, read: Homo sapiens, MCF7, MCF-7 breast cancer cell line.

The term IC50 denotes the concentration that inhibits the measured activity by half. Low values mean greater potency, high ones weaker potency. As for `COc1cc2ccc(=O)oc2cc1O[C@@H]1O[C@H](CO)[C@@H](O)[C@H](O[C@@H]2O[C@H](CO)[C@@H](O)[C@H](O)[C@H]2O)[C@H]1O` [Compound 3, 7-[(3-O-β-D-glucopyranosyl-β-D-glucopyranosyl)oxy]-6-methoxycoumarin], the IC50 with Eca-109 cell line (Homo sapiens), in the data set with MCF-7 cell line (setting [3]) and with HepG2 cell line (Homo sapiens) was above 100 µM throughout.
With `COc1cc2ccc(=O)oc2c(O[C@@H]2O[C@H](CO)[C@@H](O)[C@H](O)[C@H]2O)c1O[C@@H]1O[C@H](CO)[C@@H](O)[C@H](O)[C@H]1O` [Compound 6, 7,8-bis(β-D-glucopyranosyloxy)-6-methoxycoumarin], the IC50 in the data set on Eca-109 cell line (Homo sapiens), in the data set with MCF-7 cell line (setting [3]) and in the data set on HepG2 cell line (Homo sapiens) was above 100 µM each time.
In the case of `COc1cc2ccc(=O)oc2c(O)c1O` [Compound 12, fraxetin], the IC50 with Eca-109 cell line (Homo sapiens) was 20.4 ± 1.94 µM; in the data set with MCF-7 cell line (setting [3]), 28.6 ± 1.37 µM; in data set [1] it was above 100 µM; in the data set with HepG2 cell line (Homo sapiens) it was 30.3 ± 1.18 µM.
The corresponding values for `COc1cc2ccc(=O)oc2cc1O` [Compound 13, scopoletin] are 45.7 ± 3.55 µM, 61.6 ± 5.7 µM, above 100 µM and 53.7 ± 4.09 µM.
For `COc1cc2ccc(=O)oc2c(O)c1OC` [Compound 14, fraxidin], the IC50 with Eca-109 cell line (Homo sapiens) is 41.1 ± 3.78 µM; in the data set with MCF-7 cell line (setting [3]), 59.6 ± 5.24 µM; in data set [1], above 100 µM; with HepG2 cell line (Homo sapiens) it was above 100 µM.
As to `COc1cc2ccc(=O)oc2cc1OC` [Compound 16, scoparone], the IC50 in the data set with Eca-109 cell line (Homo sapiens), with MCF-7 cell line (setting [3]) and with HepG2 cell line (Homo sapiens) was above 100 µM in each case.
For `COc1cc([C@@H]2c3cc4c(cc3[C@@H](O[C@@H]3O[C@@H]5CO[C@@H](C)O[C@H]5[C@H](O)[C@H]3O)[C@H]3COC(=O)[C@H]23)OCO4)cc(OC)c1O` [etoposide, reference compound], the IC50 with Eca-109 cell line (Homo sapiens) worked out at 20.5 ± 1.82 µM; in the data set with MCF-7 cell line (setting [3]) it was 5.82 ± 0.49 µM; with HepG2 cell line (Homo sapiens), 1.15 ± 0.09 µM.
For the compound cleomiscosin A [Compound 11], the IC50 with Eca-109 cell line was 21 ± 1.85 µM; in the data set with MCF-7 cell line (MCF-7 breast cancer cell line), 35.3 ± 2.61 µM; in data set [2] it was above 100 µM; in the data set on HepG2 cell line it was 43.7 ± 3.97 µM.

The values above are taken from article PMC6514664, “Six New Coumarin Glycosides from the Aerial Parts of Gendarussa vulgaris” (Molecules, 2019).
